Measured values published in PubChem BioAssay AID278 (DTP/NCI, 2004).
Where “and” joins values, the source holds several entries; their conditions need not be identical. Equal values may be shown once. Inconclusive results are not listed.

Test system: nude mice, A549 intrarenal xenograft, tumor weight change
Assay: NCI In Vivo Anticancer Drug Screen. Data for tumor model A549 Human Adenocarcinoma of Lung with characteristics of Type II Alveolar Epithelial cells (intrarenal inoculation) in NU/NU BALB/C (nude) mice
Conditions: endpoint: mean tumor weight change, schedule: Q04DX003 (ip), higher = larger tumour
Protocol: The antitumor activity of compounds was measured in mice bearing transplantable tumors. Survival or tumor size were measured and the results are expressed as the measurement made in the treated group (T) divided by the measurement made in the vehicle treated control group (C). The tumor model used in this assay is A549 Human Adenocarcinoma of Lung with characteristics of Type II Alveolar Epithelial cells (intrarenal inoculation) in NU/NU BALB/C (nude) mice

[1] = dose: 75.0 mg/kg/injection, vehicle: Klucel (hydroxypropylcellulose) (HPC)
[2] = dose: 150.0 mg/kg/injection, vehicle: Klucel (hydroxypropylcellulose) (HPC)
[3] = dose: 100.0 mg/kg/injection, vehicle: saline
[4] = dose: 200.0 mg/kg/injection, vehicle: saline
[5] = dose: 25.0 mg/kg/injection, vehicle: saline with Tween-80
[6] = dose: 150.0 mg/kg/injection, vehicle: saline with Tween-80
[7] = dose: 37.5 mg/kg/injection, vehicle: water
[8] = dose: 50.0 mg/kg/injection, vehicle: saline with Tween-80
[9] = dose: 100.0 mg/kg/injection, vehicle: saline with Tween-80
[10] = dose: 300.0 mg/kg/injection, vehicle: saline with Tween-80
[11] = dose: 300.0 mg/kg/injection, vehicle: DMSO
[12] = dose: 200.0 mg/kg/injection, vehicle: saline with Tween-80
[13] = dose: 75.0 mg/kg/injection, vehicle: water

**Q.** How did the T/C (dose: 113.9 mg/kg/injection, vehicle: saline) turn out when `c1cn[nH]c1` was run?
**A.** 93 % of control

**Q.** And the T/C (dose: 151.9 mg/kg/injection, vehicle: saline)?
**A.** 47 % of control

**Q.** What about the T/C (dose: 202.5 mg/kg/injection, vehicle: saline) of the same molecule?
**A.** 63 % of control

**Q.** What about the T/C (dose: 300.0 mg/kg/injection, vehicle: saline) of the same molecule?
**A.** 46 % of control

**Q.** With `C=CCOc1cc2c(cc1C(C)c1ccc(OC)cc1)OCO2` (configuration not stated) as the molecule, how does the T/C [1] read?
**A.** 58 % of control

**Q.** What about the T/C [2] of the same molecule?
**A.** 94 % of control and 77 % of control

**Q.** For `CN=NN(C)C(=O)NC`, which T/C (dose: 25.0 mg/kg/injection, vehicle: saline) is on record?
**A.** 37 % of control

**Q.** What about the T/C (dose: 43.2 mg/kg/injection, vehicle: saline) of the same molecule?
**A.** 27 % of control

**Q.** What about the T/C (dose: 50.0 mg/kg/injection, vehicle: saline) of the same molecule?
**A.** 72 % of control

**Q.** What about the T/C (dose: 72.0 mg/kg/injection, vehicle: saline) of the same molecule?
**A.** 28 % of control

**Q.** What about the T/C [3] of the same molecule?
**A.** 8 % of control

**Q.** And the T/C (dose: 120.0 mg/kg/injection, vehicle: saline)?
**A.** 8 % of control

**Q.** And the T/C [4]?
**A.** -34 % of control and -27 % of control

**Q.** `CCC(NC(N)=O)C(CC)NC(N)=O` (configuration not stated) was tested. Which T/C (dose: 6.25 mg/kg/injection, vehicle: saline with Tween-80) did it give?
**A.** 68 % of control

**Q.** What about the T/C (dose: 12.5 mg/kg/injection, vehicle: saline with Tween-80) of the same molecule?
**A.** 120 % of control

**Q.** What about the T/C [5] of the same molecule?
**A.** 102 % of control

**Q.** What does the source list for `COc1cccc(Sc2ccc([N+](=O)[O-])c3no[n+]([O-])c23)c1`?
**A.** T/C (dose: 75.0 mg/kg/injection, vehicle: saline with Tween-80): 49 % of control; T/C [6]: 86 % of control

**Q.** For `CC#CCOCC(O)CCl` (configuration not stated), which T/C [3] is on record?
**A.** 104 % of control

**Q.** And the T/C [4]?
**A.** 90 % of control

**Q.** And the T/C (dose: 400.0 mg/kg/injection, vehicle: saline)?
**A.** 111 % of control

**Q.** How did the T/C (dose: 100.0 mg/kg/injection, vehicle: distilled water + Tween-80) turn out when `CCOc1ccc(C(C)c2cc3c(cc2OC)OCO3)cc1` (configuration not stated) was run?
**A.** 61 % of control

**Q.** And the T/C (dose: 200.0 mg/kg/injection, vehicle: distilled water + Tween-80)?
**A.** 59 % of control

**Q.** And the T/C (dose: 400.0 mg/kg/injection, vehicle: distilled water + Tween-80)?
**A.** 63 % of control

**Q.** Which T/C (dose: 27.0 mg/kg/injection, vehicle: sodium bicarbonate) does the source give for `CN(Cc1cnc2nc(N)nc(N)c2n1)c1ccc(C(=O)N[C@@H](CCC(=O)O)C(=O)O)cc1` here?
**A.** 100 % of control

**Q.** `COC(=O)NC1C(C)OC(OC2C/C=C(/C)C3C=CC4C(OC5CC(OC6CC(OC7CC(O)C(O)C(C)O7)C(OC7CC(O)C(OC)C(C)O7)C(C)O6)C(O)C(C)O5)C(C)CC(C)C4C3(C)/C(O)=C3\C(=O)OC4(CC(C)C(CO)=CC4/C=C\2C)C3=O)CC1(C)[N+](=O)[O-]` (configuration not stated) was tested. Which T/C (dose: 9.38 mg/kg/injection, vehicle: water) did it give?
**A.** 69 % of control

**Q.** What about the T/C (dose: 18.75 mg/kg/injection, vehicle: water) of the same molecule?
**A.** 58 % of control

**Q.** What about the T/C [7] of the same molecule?
**A.** 76 % of control

**Q.** `CCOC(=O)/C=C/C(=O)N1CCN(C(=O)/C=C/C(=O)OCC)C(C)C1` (configuration not stated) was tested. Which T/C [2] did it give?
**A.** 50 % of control

**Q.** What about the T/C (dose: 300.0 mg/kg/injection, vehicle: Klucel (hydroxypropylcellulose) (HPC)) of the same molecule?
**A.** 71 % of control

**Q.** What about the T/C (dose: 600.0 mg/kg/injection, vehicle: Klucel (hydroxypropylcellulose) (HPC)) of the same molecule?
**A.** 49 % of control

**Q.** `CC1/C=C/C=C/CC/C=C/C=C/C=C/C=C/C(OC2OC(C)C(O)C(N)C2O)CC2OC(CC(O)C(O)CCC(O)CC(O)CC(O)CC(=O)OC(C)C(C)C1O)CC(O)C2C(=O)O` (configuration not stated) was tested. Which T/C [5] did it give?
**A.** 97 % of control

**Q.** And the T/C [8]?
**A.** 69 % of control

**Q.** And the T/C [9]?
**A.** 62 % of control

**Q.** With `CCN(CC)c1ccc2[nH]c3c(C(N)=O)cc(=O)c(=O)c=3oc2c1` as the molecule, how does the T/C [6] read?
**A.** 84 % of control

**Q.** And the T/C [10]?
**A.** 96 % of control

**Q.** Which T/C (dose: 150.0 mg/kg/injection, vehicle: DMSO) does the source give for `O=C(O)[C@H](Cc1ccccc1)N1C(=O)c2ccccc2C1=O` here?
**A.** 94 % of control

**Q.** And the T/C [11]?
**A.** 77 % of control

**Q.** And the T/C (dose: 600.0 mg/kg/injection, vehicle: DMSO)?
**A.** 47 % of control

**Q.** For `NC(=S)N/N=C/c1ccc(O)cn1`, which T/C [9] is on record?
**A.** 46 % of control

**Q.** What about the T/C [12] of the same molecule?
**A.** 57 % of control

**Q.** And the T/C (dose: 400.0 mg/kg/injection, vehicle: saline with Tween-80)?
**A.** 53 % of control

**Q.** How did the T/C [6] turn out when `CC1C(c2ccccc2)OC(N2CCOCC2)C(C)(C)CN1C` (configuration not stated) was run?
**A.** 112 % of control

**Q.** What about the T/C [10] of the same molecule?
**A.** 72 % of control

**Q.** With `Oc1cccc2ccccc12` as the molecule, how does the T/C [7] read?
**A.** 102 % of control

**Q.** What about the T/C [13] of the same molecule?
**A.** 54 % of control

**Q.** How did the T/C (dose: 37.5 mg/kg/injection, vehicle: Klucel (hydroxypropylcellulose) (HPC)) turn out when `CCCCCNc1ncnc2c(C)[nH]nc12` was run?
**A.** 82 % of control

**Q.** What about the T/C [1] of the same molecule?
**A.** 105 % of control

**Q.** And the T/C [2]?
**A.** 100 % of control

**Q.** With `Cc1ccc(C2=CSC3=NCCN23)cc1Cl` as the molecule, how does the T/C (dose: 2.5 mg/kg/injection, vehicle: suspension in saline) read?
**A.** 88 % of control

**Q.** And the T/C (dose: 5.0 mg/kg/injection, vehicle: saline)?
**A.** 119 % of control

**Q.** And the T/C (dose: 5.0 mg/kg/injection, vehicle: suspension in saline)?
**A.** 60 % of control

**Q.** And the T/C (dose: 10.0 mg/kg/injection, vehicle: suspension in saline)?
**A.** 44 % of control

**Q.** And the T/C (dose: 20.0 mg/kg/injection, vehicle: saline)?
**A.** 104 % of control

**Q.** And the T/C (dose: 20.0 mg/kg/injection, vehicle: suspension in saline)?
**A.** 102 % of control

**Q.** What about the T/C (dose: 40.0 mg/kg/injection, vehicle: saline) of the same molecule?
**A.** 26 % of control

**Q.** How did the T/C [8] turn out when `Cc1ccc(C(=Nc2ccccc2)N=P(c2ccccc2)(c2ccccc2)c2ccccc2)cc1` was run?
**A.** 90 % of control

**Q.** What about the T/C [12] of the same molecule?
**A.** 82 % of control

**Q.** Which results are given for `O=C(Oc1ccccc1)c1cc(O)c(O)c(O)c1`?
**A.** T/C (dose: 18.75 mg/kg/injection, vehicle: saline): 60 % of control; T/C (dose: 37.5 mg/kg/injection, vehicle: saline): 80 % of control; T/C (dose: 75.0 mg/kg/injection, vehicle: saline): 50 % of control; T/C (dose: 150.0 mg/kg/injection, vehicle: saline): 62 % of control

**Q.** For `COc1cccc2c1C(=O)c1c(O)c3c(c(O)c1C2=O)C[C@@](O)(C(=O)CO)C[C@@H]3OC1CC(N)C(O)C(C)O1` (some centres not stated), which T/C (dose: 2.0 mg/kg/injection, vehicle: saline) is on record?
**A.** 11 % of control and 13 % of control and 25 % of control

**Q.** And the T/C (dose: 4.0 mg/kg/injection, vehicle: saline)?
**A.** 9 % of control and 13 % of control and 20 % of control

**Q.** What about the T/C (dose: 8.0 mg/kg/injection, vehicle: saline) of the same molecule?
**A.** 7 % of control and -9 % of control and -8 % of control

**Q.** How did the T/C [6] turn out when `NC(=O)c1[nH]cnc1O` was run?
**A.** 151 % of control

**Q.** Which T/C [11] does the source give for `CC(CNC(=O)C12CC3CC(CC(C3)C1)C2)NC(=O)C12CC3CC(CC(C3)C1)C2` (configuration not stated) here?
**A.** 106 % of control

**Q.** What does the source list for `CO[C@@H]1C2=CC=CC=C[C@H]2n2c(=O)n(C)c(=O)n21`?
**A.** T/C [7]: 223 % of control; T/C (dose: 75.0 mg/kg/injection, vehicle: other): 32 % of control; T/C [13]: 195 % of control; T/C (dose: 150.0 mg/kg/injection, vehicle: other): 74 % of control; T/C (dose: 150.0 mg/kg/injection, vehicle: water): 158 % of control

**Q.** Which results are given for `COc1cc2c(cc1OC)[C@@H]1C(=O)c3ccc4c(c3O[C@@H]1CO2)C[C@H](C(C)C)O4`?
**A.** T/C (dose: 21.25 mg/kg/injection, vehicle: Klucel (hydroxypropylcellulose) (HPC)): 90 % of control; T/C (dose: 42.5 mg/kg/injection, vehicle: Klucel (hydroxypropylcellulose) (HPC)): 87 % of control; T/C (dose: 85.0 mg/kg/injection, vehicle: Klucel (hydroxypropylcellulose) (HPC)): 37 % of control

**Q.** What does the source list for `Cc1cc(Br)c2nsnc2c1[N+](=O)[O-]`?
**A.** T/C [6]: 7 % of control and 26 % of control; T/C (dose: 1200.0 mg/kg/injection, vehicle: saline with Tween-80): 38 % of control
